# Data from patent publication US20090325964A1, “Piperazine Metabotropic Glutamate Receptor 5 (MGLUR5) Negative Allosteric Modulators For Anxiety/Depression” (Wyeth, priority 2008, published 2009).
# Target: T1, rat mGluR5 receptor (Rattus norvegicus, UniProt P31424)
# T1 construct: expressed in transfected cells; host or cells: HEK-293
# Test: [3H]-MPEP displacement binding assay, HEK-293 cell membranes expressing rat mGluR5
# Settings: [3H]-MPEP displacement, rat mGluR5; no Ki given; read-out: IC50 (printed in the Median Ki column instead of a Ki)
# Outline: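 Membranes from HEK-293 cells expressing rat mGluR5 (12-25 μg protein), incubated 60 min at room temperature with 4 nM [3H]-MPEP in 50 mM Tris pH 7.5, then filtered. Nonspecific binding defined with 10 μM MPEP.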
# T1 sequence (P31424 21-1203): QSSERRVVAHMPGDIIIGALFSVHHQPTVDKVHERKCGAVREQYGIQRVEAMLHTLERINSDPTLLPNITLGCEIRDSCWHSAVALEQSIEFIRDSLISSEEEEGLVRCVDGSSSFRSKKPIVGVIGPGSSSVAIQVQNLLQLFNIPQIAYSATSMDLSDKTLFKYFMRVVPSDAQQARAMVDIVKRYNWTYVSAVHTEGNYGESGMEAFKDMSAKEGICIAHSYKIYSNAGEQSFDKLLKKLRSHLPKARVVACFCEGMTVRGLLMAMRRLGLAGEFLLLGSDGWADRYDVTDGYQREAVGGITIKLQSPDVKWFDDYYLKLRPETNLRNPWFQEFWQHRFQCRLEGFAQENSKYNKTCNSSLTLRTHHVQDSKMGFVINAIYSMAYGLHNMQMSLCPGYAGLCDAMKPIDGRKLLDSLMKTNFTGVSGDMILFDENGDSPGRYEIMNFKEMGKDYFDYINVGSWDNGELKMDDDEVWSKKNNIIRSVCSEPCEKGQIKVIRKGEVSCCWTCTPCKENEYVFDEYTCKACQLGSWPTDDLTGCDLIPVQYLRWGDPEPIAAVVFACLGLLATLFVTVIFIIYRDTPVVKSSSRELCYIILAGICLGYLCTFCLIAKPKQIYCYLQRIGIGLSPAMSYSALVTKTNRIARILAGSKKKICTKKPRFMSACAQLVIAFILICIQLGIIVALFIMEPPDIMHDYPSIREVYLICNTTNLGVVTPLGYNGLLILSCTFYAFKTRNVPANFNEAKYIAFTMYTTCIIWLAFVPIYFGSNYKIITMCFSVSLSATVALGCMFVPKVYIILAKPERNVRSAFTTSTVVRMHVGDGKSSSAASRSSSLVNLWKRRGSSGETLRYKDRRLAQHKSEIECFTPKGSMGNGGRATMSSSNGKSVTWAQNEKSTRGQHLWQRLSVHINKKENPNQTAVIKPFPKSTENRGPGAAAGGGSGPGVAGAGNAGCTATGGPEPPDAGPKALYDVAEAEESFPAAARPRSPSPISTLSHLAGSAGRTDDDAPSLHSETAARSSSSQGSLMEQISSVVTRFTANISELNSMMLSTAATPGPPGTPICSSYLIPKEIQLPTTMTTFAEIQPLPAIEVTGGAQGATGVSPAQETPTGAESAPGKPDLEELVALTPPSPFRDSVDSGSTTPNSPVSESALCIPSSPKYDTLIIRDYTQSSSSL
row,IC50 [nM],SMILES
1,> 10000,"COc1ccc(C(=O)N2CCN(c3nc4ccc([N+](=O)[O-])cc4s3)CC2)cc1C#Cc1ccccn1 [Compound 282, 2-{4-[4-methoxy-3-(pyridin-2-ylethynyl)benzoyl]piperazin-1-yl}-6-nitro-1,3-benzothiazole]"
2,> 10000,"COc1ccc(C(=O)N2CCN(c3cc4ccccc4s3)CC2)cc1C#Cc1ccccn1 [Compound 290, 1-(1-benzothiophen-2-yl)-4-[4-methoxy-3-(pyridin-2-ylethynyl)benzoyl]piperazine]"
3,> 10000,"COc1ccc(C(=O)N2CCN(c3ncccc3Cl)CC2)cc1C#Cc1ccccc1[N+](=O)[O-] [Compound 342, 1-(3-chloropyridin-2-yl)-4-{4-methoxy-3-[(2-nitrophenyl)ethynyl]benzoyl}piperazine]"
4,> 10000,"COc1ccc(C(=O)N2CCN(c3ncccc3Cl)CC2)cc1C#Cc1cccc(OCc2ccccc2)c1 [Compound 343, 1-(3-{[3-(benzyloxy)phenyl]ethynyl}-4-methoxybenzoyl)-4-(3-chloropyridin-2-yl)piperazine]"
5,> 10000,"COc1ccc(C(=O)N2CCN(c3ncccc3Cl)CC2)cc1C#Cc1cccc(OC(F)(F)F)c1 [Compound 344, 1-(3-chloropyridin-2-yl)-4-(4-methoxy-3-{[3-(trifluoromethoxy)phenyl]ethynyl}benzoyl)piperazine]"
6,> 10000,"COc1ccc(C(=O)N2CCN(c3ncccc3Cl)CC2)cc1C#Cc1ccc(OCc2ccccc2)cc1 [Compound 346, 1-(3-{[4-(benzyloxy)phenyl]ethynyl}-4-methoxybenzoyl)-4-(3-chloropyridin-2-yl)piperazine]"
7,> 10000,"COc1ccc(C(=O)N2CCN(c3ncccc3Cl)CC2)cc1C#Cc1ccc(C(C)=O)cc1 [Compound 347, 1-{4-[(5-{[4-(3-chloropyridin-2-yl)piperazin-1-yl]carbonyl}-2-methoxyphenyl)ethynyl]phenyl}ethanone]"
8,> 10000,"COc1ccc(C(=O)N2CCN(c3ncccc3Cl)CC2)cc1C#Cc1ccc(OC(F)(F)F)cc1 [Compound 348, 1-(3-chloropyridin-2-yl)-4-(4-methoxy-3-{[4-(trifluoromethoxy)phenyl]ethynyl}benzoyl)piperazine]"
9,> 10000,"COc1ccc(C(=O)N2CCN(c3ncccc3Cl)CC2)cc1C#Cc1ccc(C(F)(F)F)cc1 [Compound 349, 1-(3-chloropyridin-2-yl)-4-(4-methoxy-3-{[4-(trifluoromethyl)phenyl]ethynyl}benzoyl)piperazine]"
10,> 10000,"COc1ccc(C(=O)N2CCN(c3ncccc3Cl)CC2)cc1C#Cc1ccc([N+](=O)[O-])cc1 [Compound 350, 1-(3-chloropyridin-2-yl)-4-{4-methoxy-3-[(4-nitrophenyl)ethynyl]benzoyl}piperazine]"

# Same assay, conditions: [3H]-MPEP displacement, rat mGluR5; read-out: Median Ki
row,Ki [nM],SMILES
1,269,"COc1ccc(C(=O)N2CCN(Cc3c(F)cccc3Cl)CC2)cc1C#Cc1ccccn1 [Compound 289, 1-(2-chloro-6-fluorobenzyl)-4-[4-methoxy-3-(pyridin-2-ylethynyl)benzoyl]piperazine]"
2,99,"COc1ccc(C(=O)N2CCN(c3cc(Cl)nc(SC)n3)CC2)cc1C#Cc1ccccn1 [Compound 294, 4-chloro-6-{4-[4-methoxy-3-(pyridin-2-ylethynyl)benzoyl]piperazin-1-yl}-2-(methylthio)pyrimidine]"
3,102,"COc1ccc(C(=O)N2CCN(c3nc(Cl)ncc3F)CC2)cc1C#Cc1ccccn1 [Compound 295, 2-chloro-5-fluoro-4-{4-[4-methoxy-3-(pyridin-2-ylethynyl)benzoyl]piperazin-1-yl}pyrimidine]"
4,159,"COc1ccc(C(=O)N2CCN(c3cc(Cl)nc(C)n3)CC2)cc1C#Cc1ccccn1 [Compound 297, 4-chloro-6-{4-[4-methoxy-3-(pyridin-2-ylethynyl)benzoyl]piperazin-1-yl}-2-methylpyrimidine]"
5,745,"Cc1ccc(C(=O)N2CCN(c3ncc(Cl)cc3Cl)CC2)cc1C#Cc1ccccn1 [Compound 310, 1-(3,5-dichloropyridin-2-yl)-4-[4-methyl-3-(pyridin-2-ylethynyl)benzoyl]piperazine]"
6,140,"Cc1ccc(C(=O)N2CCN(c3ncccc3Cl)CC2)cc1C#Cc1ccccn1 [Compound 311, 1-(3-chloropyridin-2-yl)-4-[4-methyl-3-(pyridin-2-ylethynyl)benzoyl]piperazine]"
7,84,"O=C(c1ccc(F)c(C#Cc2ccccn2)c1)N1CCN(c2ncccn2)CC1 [Compound 312, 2-{4-[4-Fluoro-3-(pyridin-2-ylethynyl)benzoyl]piperazin-1-yl}pyrimidine]"
8,1840,"O=C(c1ccc(F)c(C#Cc2ccccn2)c1)N1CCN(c2ncc(Cl)cc2Cl)CC1 [Compound 314, 1-(3,5-dichloropyridin-2-yl)-4-[4-fluoro-3-(pyridin-2-ylethynyl)benzoyl]piperazine]"
9,270,"O=C(c1ccc(F)c(C#Cc2ccccn2)c1)N1CCN(c2ncccc2Cl)CC1 [Compound 315, 1-(3-chloropyridin-2-yl)-4-[4-fluoro-3-(pyridin-2-ylethynyl)benzoyl]piperazine]"
10,652,"CCOc1ccc(C(=O)N2CCN(c3ncc(Cl)cc3Cl)CC2)cc1C#Cc1ccccn1 [Compound 319, 1-(3,5-dichloropyridin-2-yl)-4-[4-ethoxy-3-(pyridin-2-ylethynyl)benzoyl]piperazine]"
11,149,"CCOc1ccc(C(=O)N2CCN(c3ncccc3Cl)CC2)cc1C#Cc1ccccn1 [Compound 321, 1-(3-chloropyridin-2-yl)-4-[4-ethoxy-3-(pyridin-2-ylethynyl)benzoyl]piperazine]"
12,198,"O=C(c1ccc(OCC2CC2)c(C#Cc2ccccn2)c1)N1CCN(c2ccccn2)CC1 [Compound 323, 1-{[4-(cyclopropylmethoxy)-3-(pyridin-2-ylethynyl)phenyl]carbonyl}-4-pyridin-2-ylpiperazine]"
13,1340,"O=C(c1ccc(OCC2CC2)c(C#Cc2ccccn2)c1)N1CCN(c2ncccn2)CC1 [Compound 325, 2-(4-{[4-(cyclopropylmethoxy)-3-(pyridin-2-ylethynyl)phenyl]carbonyl}piperazin-1-yl)pyrimidine]"
14,1070,"O=C(c1ccc(OC(F)(F)F)c(C#Cc2ccccn2)c1)N1CCN(c2ncccc2Cl)CC1 [Compound 336, 1-(3-chloropyridin-2-yl)-4-[3-(pyridin-2-ylethynyl)-4-(trifluoromethoxy)benzoyl]piperazine]"
15,702,"COc1nc(N2CCN(C(=O)c3ccc(OC(F)(F)F)c(C#Cc4ccccn4)c3)CC2)ncc1Br [Compound 339, 5-bromo-4-methoxy-2-{4-[3-(pyridin-2-ylethynyl)-4-(trifluoromethoxy)benzoyl]piperazin-1-yl}pyrimidine]"

# Second part, the compound before the results:
row,SMILES,Ki [nM]
1,"COc1ccc(C(=O)N2CCN(Cc3c(Cl)cccc3Cl)CC2)cc1C#Cc1ccccn1 [Compound 277, 1-(2,6-dichlorobenzyl)-4-[4-methoxy-3-(pyridin-2-ylethynyl)benzoyl]piperazine]",272
2,"COc1ccc(C(=O)N2CCN(S(=O)(=O)c3ccccc3Cl)CC2)cc1C#Cc1ccccn1 [Compound 278, 1-[(2-chlorophenyl)sulfonyl]-4-[4-methoxy-3-(pyridin-2-ylethynyl)benzoyl]piperazine]",876
3,"COc1ccc(C(=O)N2CCN(S(=O)(=O)c3cccc(Cl)c3)CC2)cc1C#Cc1ccccn1 [Compound 279, 1-[(3-chlorophenyl)sulfonyl]-4-[4-methoxy-3-(pyridin-2-ylethynyl)benzoyl]piperazine]",832
4,"COc1ccc(C(=O)N2CCN(c3nc(-c4ccccc4)ns3)CC2)cc1C#Cc1ccccn1 [Compound 281, 1-[4-methoxy-3-(pyridin-2-ylethynyl)benzoyl]-4-(3-phenyl-1,2,4-thiadiazol-5-yl)piperazine]",197
5,"COc1ccc(C(=O)N2CCN(c3nnc(-c4ncc([N+](=O)[O-])n4C)s3)CC2)cc1C#Cc1ccccn1 [Compound 283, 1-[4-methoxy-3-(pyridin-2-ylethynyl)benzoyl]-4-[5-(1-methyl-5-nitro-1H-imidazol-2-yl)-1,3,4-thiadiazol-2-yl]piperazine]",2310
6,"COc1ccc(C(=O)N2CCN(S(=O)(=O)c3ccc(-n4cnnn4)cc3)CC2)cc1C#Cc1ccccn1 [Compound 284, 1-[4-methoxy-3-(pyridin-2-ylethynyl)benzoyl]-4-{[4-(1H-tetrazol-1-yl)phenyl]sulfonyl}piperazine]",376
7,"COc1ccc(C(=O)N2CCN(Cc3ccc(Cl)c(Cl)c3)CC2)cc1C#Cc1ccccn1 [Compound 288, 1-(3,4-dichlorobenzyl)-4-[4-methoxy-3-(pyridin-2-ylethynyl)benzoyl]piperazine]",170
8,"COc1ccc(C(=O)N2CCN(c3nnc(-c4ccccc4)[nH]3)CC2)cc1C#Cc1ccccn1 [Compound 291, 1-[4-methoxy-3-(pyridin-2-ylethynyl)benzoyl]-4-(5-phenyl-4H-1,2,4-triazol-3-yl)piperazine]",199
9,"COc1nc(OC)nc(N2CCN(C(=O)c3ccc(OC)c(C#Cc4ccccn4)c3)CC2)n1 [Compound 305, 2,4-dimethoxy-6-{4-[4-methoxy-3-(pyridin-2-ylethynyl)benzoyl]piperazin-1-yl}-1,3,5-triazine]",229
10,"COc1ccc(C(=O)N2CCN(c3ccccn3)C(=O)C2)cc1C#Cc1ccccn1 [Compound 330, 4-{[4-methoxy-3-(pyridin-2-ylethynyl)phenyl]carbonyl}-1-pyridin-2-ylpiperazin-2-one]",122
11,"O=C(c1ccc(OC(F)(F)F)c(C#Cc2ccccn2)c1)N1CCN(c2cccc(C(F)(F)F)c2)CC1 [Compound 337, 1-[3-(pyridin-2-ylethynyl)-4-(trifluoromethoxy)benzoyl]-4-[3-(trifluoromethyl)phenyl]piperazine]",1570
12,"COc1ccc(C(=O)N2CCN(c3ncccc3Cl)CC2)cc1C#Cc1ccccc1 [Compound 341, 1-(3-chloropyridin-2-yl)-4-[4-methoxy-3-(phenylethynyl)benzoyl]piperazine]",1130
